According to publication PMC9000610, “Computational Analysis and Biological Activities of Oxyresveratrol Analogues, the Putative Cyclooxygenase-2 Inhibitors” (Molecules, 2022):

Columns and labels:
[1] = target: T1, human COX-2 (Homo sapiens, UniProt P35354); assay: Human COX-2 inhibitor screening assay kit (Cayman); format: biochemical; details: mean ± standard deviation of three replicates; read-out: COX-2 Inhibition IC50
T1 construct: purchased Cayman Chemicals USA Item no; 701080
T1 sequence (P35354 18-604): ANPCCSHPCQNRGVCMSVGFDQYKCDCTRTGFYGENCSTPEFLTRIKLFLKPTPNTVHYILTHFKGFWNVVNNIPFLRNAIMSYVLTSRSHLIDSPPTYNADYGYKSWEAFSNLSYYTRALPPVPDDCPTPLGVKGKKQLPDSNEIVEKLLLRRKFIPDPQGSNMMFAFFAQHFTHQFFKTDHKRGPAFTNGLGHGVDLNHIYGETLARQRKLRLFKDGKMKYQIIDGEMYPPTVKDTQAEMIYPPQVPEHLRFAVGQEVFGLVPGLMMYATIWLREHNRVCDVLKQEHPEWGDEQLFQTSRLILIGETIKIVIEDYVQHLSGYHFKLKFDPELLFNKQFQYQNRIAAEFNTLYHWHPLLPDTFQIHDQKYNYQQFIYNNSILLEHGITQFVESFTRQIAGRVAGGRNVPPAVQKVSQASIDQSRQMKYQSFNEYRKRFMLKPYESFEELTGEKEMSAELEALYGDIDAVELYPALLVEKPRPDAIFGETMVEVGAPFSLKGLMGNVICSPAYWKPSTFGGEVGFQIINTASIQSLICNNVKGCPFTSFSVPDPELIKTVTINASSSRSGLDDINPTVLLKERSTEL
Protocol: COX-2 enzyme and tested compounds at various concentrations were prepared in the reaction buffer (0.1 M Tris-HCl, pH 8.0, containing 5 mM EDTA and 2 mM phenol) containing heme. […] The quenched reactions were incubated at room temperature for 5 min to produce prostaglandin F2α. Dilutions were made with the ELISA buffer and measured by using a PGE2 ELISA kit according to the manufacturer’s instruction.

[2] = in vitro; format: cell-based, human; details: human
Protocol: (§1) The effect of oxyresveratrol and its derivatives on the viability of normal human fibroblasts (MRC-5 cells) were determined by MTT assay. MRC-5 cells were diluted to 2 × 10^5 cells/mL with a complete medium. The cells (100 µL) were seeded in the wells of the sterile 96-well cell culture plate. After incubation at 37 °C in CO2 for 24 h, the cells were treated with different concentrations of sample compounds (100 µL) and doxorubicin as a positive control (100 µL). After incubation for 48 h, MTT solution (20 µL of 5 mg/mL) was added to each well and incubated for 3 h. After that, the complete medium was removed. Then, the cells were lysed with DMSO (100 µL). The yellow MTT dye was reduced by succinic dehydrogenase in the mitochondria of viable cells to purple formazan crystals. After that, absorbance (OD) was measured by a microplate reader at 570 nm. The percentage of cytotoxicity was determined with Equation (1) below. (1) Cell viability(%)=OD of treated cells/OD of control cells×100^

[3] = tested on: MRC-5 cells; assay: in vitro; format: cell-based, human
Protocol: as §1

SMILES	IC50 [1] [µM]	CC50 at 48 h [2] [µM]	cytotoxicity to normal cell lines (in words) [3]	melting point [°C]
Oc1cc(O)cc(CCc2ccc(O)cc2O)c1 [Compound 4, 2,3′,4,5′-tetrahydroxybibenzyl]	11.5 ± 1.54	106 ± 3.86	very low cytotoxicity	
COc1cc(OC)cc(C(F)C(OC)c2ccc(OC)cc2OC)c1 (stereo not drawn) [Compound 8]		53.04 ± 0.22		
CC(=O)Oc1cc(CCc2ccc(OC(C)=O)cc2OC(C)=O)cc(OC(C)=O)c1 [Compound 6, 2,3′,4,5′-tetraacetoxybibenzyl]	19 ± 2.01	121 ± 2.37		72.3 to 73.3
COc1cccc2c1C(=O)c1c(O)c3c(c(O)c1C2=O)C[C@@](O)(C(=O)CO)C[C@@H]3O[C@H]1C[C@H](N)[C@H](O)[C@H](C)O1 [doxorubicin, reference compound]		> 100		
COc1cc(C=Cc2ccc(OC)cc2OC)cc(OC)c1 [Compound 2, 2,3′,4,5′-tetramethoxystilbene]	25 ± 2.34	118 ± 2.69		
CC(=O)Oc1cc(OC(C)=O)cc(C(F)C(F)c2ccc(OC(C)=O)cc2OC(C)=O)c1 (stereo not drawn) [Compound 9]		11.7 ± 1.35		
COc1cc(CCc2ccc(OC)cc2OC)cc(OC)c1 [Compound 5, 2,3′,4,5′-tetramethoxybibenzyl]	18.1 ± 2.07	130 ± 3.04		44.7 to 46.8
Oc1cc(O)cc(/C=C/c2ccc(O)cc2O)c1 [Compound 1, trans-2,3′,4,5′-tetrahydroxystilbene]	14.5 ± 2.04	57.5 ± 2.34		
CC(=O)Oc1cc(C=Cc2ccc(OC(C)=O)cc2OC(C)=O)cc(OC(C)=O)c1 [Compound 3, 2,3′,4,5′-tetraacetoxystilbene]	23 ± 2.02	77.7 ± 3.07		
